Results from US20250129012A1, “ANTI-INFLAMMATORY AND ANALGESIC COMPOUNDS AND USE THEREOF” (JIANGSU ATOM BIOSCIENCE AND PHARMACEUTICAL CO., LTD., priority 2021, published 2025).
Like-named read-outs stand apart in the source and are kept apart here.

Columns and labels:
[1] = tested on: gouty arthritis in rats (urate crystals, left ankle joint); test: Pharmacodynamics experiment A on gouty arthritis in rats: gait score; assay type: in vivo, SD rats; parameters: Gait Score: scale not given here; conditions: 0.6 mg/kg gavage; for Gait Score: Mean ± SEM
Method: Compounds 2, 17, 26 and 27 were prepared by grinding with 0.5% CMC-Na into a suspension of the corresponding concentration (0.06 mg/mL) for gavage before administration, and the volume of administration was 10 mL/kg. […] Before use, 0.5% CMC-Na was used for grinding and prepared into a suspension of the corresponding concentration (0.06 mg/mL) for gavage, and the volume of drug administered was 10 mL/kg.
Each group of subjects was prepared into a suspension of the corresponding concentration, and the administration volume was 10 mL/kg.
The crystalline arthritis model was prepared by intra-articular injection of urate crystals (40 mg/mL, in the left ankle joint of each rat). Different doses of the test drug were given separately by gavage administration. The day of administration was defined as day 1 of the experiment, and the drug was administered once a day for 10 consecutive days (pre-administration of the drug for 7 days prior to modeling, modeling on day 8, and continuation of the drug for 3 days). The experiment ended on day 10.
The degree of lameness of the modeled joints was observed and scored at the same time point.
The data obtained from the experiment were statistically analyzed using IBM SPSS Statistics 22.0. All measurements were expressed as Mean±S.E.M s. The data were analyzed using SPSS 22.0 statistical software and variance chi-square test was performed on the parameters.

[2] = In vivo pharmacokinetics in SD rats; conditions: for AUC(0-inf): read-out: AUCINF; for MRT inf: read-out: MRTINF
Outline: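 SD rats received compound intravenously (0.5 mg/mL solution) or by oral gavage (1 mg/mL, fasted overnight), both formulated in DMSO/Solutol HS15/saline. Plasma compound concentrations were measured by LC/MS/MS. Non-compartmental parameters were then calculated.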

[3] = tested on: TNF-α; test: Inflammatory factor experiment A: TNF-α in gouty arthritis rats; assay type: in vivo, SD rats
Method: (§1) Compounds 14, 17 and 26 were prepared by grinding with 0.5% CMC-Na before administration and into a suspension for gavage at the corresponding concentration (0.06 mg/mL), with a dosage volume of 10 mL/kg. Colchicine, purchased from Sun Chemical Technology (Shanghai) Co., Ltd. with batch no. 49ETRRAS, and was prepared by grinding with 0.5% CMC-Na before administration and into a suspension for gavage at the corresponding concentration (0.06 mg/mL), with a dosage volume of 10 mL/kg.
(§2) The compounds in each group were prepared into a suspension of the corresponding concentration, and the dosage volume was 10 mL/kg.
(§3) The crystalline arthritis model was prepared by intra-articular injection of urate crystals (40 mg/mL in the left ankle joint of each rat). Different doses of the test compounds were given separately by gavage administration. The day of administration was defined as day 1 of the experiment, and the compounds were administered once a day for 10 consecutive days (pre-administration of the drug for 7 days prior to modeling, modeling on day 8, and continuation of the drug for 3 days). The experiment ended on day 10. […]

[4] = tested on: IL-6; test: Inflammatory factor experiment B: IL-6 in knee synovial tissue (ELISA); assay type: in vivo, SD rats
[5] = tested on: IL-6; test: Inflammatory factor experiment A: IL-6 in gouty arthritis rats; assay type: in vivo, SD rats; conditions: synovial tissue of knee joints; dose 0.6 mg/kg gavage; day 10
Method: as §1, §2, §3

[6] = tested on: IL-1β; test: Inflammatory factor experiment B: IL-1β in knee synovial tissue (ELISA); assay type: in vivo, SD rats
[7] = Sprague-Dawley, rat, in vivo, po, Gavage - 10 mg/kg
[8] = Sprague-Dawley, rat, in vivo, Intravenous injection - 1 mg/kg
[9] = compounds 0.6 mg/kg, colchicine 0.6 and 1.2 mg/kg

In the case of `COc1cc2c(c(OC)c1OC)-c1ccc(OC)c(=O)cc1[C@@H](NC(C)=O)CC2` [colchicine, reference compound], the “Gait versus model group, in words” value ([1]; time points after modeling, P<0.05 or P<0.01) is reported as “improved the gait of rats at 2 h, 24 h, and 48 h after modeling”, the Gait Score ([1]; 2 h after modeling) is reported as 1.10 ± 0.10 and the Gait Score ([1]; 4 h after modeling) is reported as 1.10 ± 0.10. For the same molecule, the Gait Score ([1]; 8 h after modeling) was 1.30 ± 0.15, the Gait Score ([1]; 10 h after modeling) was 1.30 ± 0.21 and the Gait Score ([1]; 24 h after modeling) was 1.00 ± 0.00. It also gave a Gait Score ([1]; 48 h after modeling) of 1.00 ± 0.00, a Gait Score ([1]; before modeling) of 0.00 ± 0.00 and an F ([2]; Gavage - 10 mg/kg, calculated by AUCINF) of 8.73%. It also gave an AUC(0-inf) [2, 7] of 735 ng·h/mL, a Cmax ([2]; Sprague-Dawley, rat, in vivo, po, Gavage - 10 mg/kg, read-out: Cmax) of 175 ng/mL and an MRT inf [2, 7] of 25.7 h. It also gave a Tmax ([2]; Sprague-Dawley, rat, in vivo, po, Gavage - 10 mg/kg, read-out: Tmax) of 0.417 h, an AUC(0-inf) [2, 8] of 567 ng·h/mL and a clearance ([2]; Sprague-Dawley, rat, in vivo, Intravenous injection - 1 mg/kg, read-out: CL (converted)) of 31.8 mL/min/kg. For the same molecule, the MRT inf [2, 8] was 11 h, the Vd ([2]; Sprague-Dawley, rat, in vivo, Intravenous injection - 1 mg/kg, read-out: VSS) was 17.6 L/kg and the “TNF-α level after modeling, in words” value ([3]; 0.6 mg/kg) was “can reduce the TNF-α level”. For the same molecule, the “Decreased TNF-α percentage %” value ([3]; synovial tissue of knee joints, dose 0.6 mg/kg gavage, day 10) was 93.73%, the inhibition in vivo at 0.6 mg/kg ([4]; Rattus norvegicus, po, synovial tissue of knee joints, 48 h after modeling, dose 0.6 mg/kg, read-out: IL-6 percentage decrease %) was 83.5% and the inhibition in vivo at 1.2 mg/kg ([4]; Rattus norvegicus, po, synovial tissue of knee joints, 48 h after modeling, dose 1.2 mg/kg (high dose group), read-out: IL-6 percentage decrease %) was 96.3%. The “IL-6 level after modeling, in words” value [4, 9] was “could reduce the IL-6 level”, the “Decreased IL-6 percentage %” value [5] was 107.14% and the inhibition in vivo at 0.6 mg/kg ([6]; Rattus norvegicus, po, synovial tissue of knee joints, 48 h after modeling, dose 0.6 mg/kg, read-out: IL-1β percentage decrease %) was 74.2%. The inhibition in vivo at 1.2 mg/kg ([6]; Rattus norvegicus, po, synovial tissue of knee joints, 48 h after modeling, dose 1.2 mg/kg (high dose group), read-out: IL-1β percentage decrease %) was 63.1% and the “IL-1β level after modeling, in words” value [6, 9] was “reduced IL-1β in synovial tissue”.
